The values that follow come from article PMC11111895, “Identification of a dCache-type chemoreceptor in Campylobacter jejuni that specifically mediates chemotaxis towards methyl pyruvate” (Frontiers in Microbiology, 2024).

One experiment concerns the target Tlp11-LBD. Kind of experiment: Microscale thermophoresis (MST) of Tlp11-LBD. The format is binding, C. jejuni ATCC 33560. The procedure: (§1) The His-tag dye (MO-L018 RED-tris-NTA, NanoTemper, Germany) was adjusted to a final concentration of 25 nM and used to label the purified protein with a His-tag. The compound was diluted to a series of concentrations in phosphate-buffered saline ([Duan et al., 2023]) with 0.05% Tween 20 (PBS-T) buffer and mixed in a ratio of 1:1 with protein. The mixtures were loaded into capillaries (Monolith™ Series capillaries, NanoTemper) by means of capillary action. Thermophoresis was measured using a Monolith™ NT.115 (NanoTemper) instrument, with 40% excitation and 40% MST power configuration. The time-traces of changes in fluorescence, which reflected the thermophoretic movement of labeled protein affected by different concentrations of compound were recorded, and the dose–response curves were fitted with the ‘temperature jump and thermophoresis’ mode. Data analysis was performed using MO. Affinity Analysis version 2.3 (NanoTemper) and Prism version 8.0.2 (GraphPad Software, United States).
MST quantifies interaction affinities by detecting the direct movement of fluorescent molecules along temperature gradients in capillaries. Ligand binding changes the thermophoretic movement of proteins, which can be used to derive Kds, by sequentially scanning capillaries with different ligand concentrations. MST has been applied to the study of weak binding systems and validated to provide reliable results ([Linke et al., 2016]; [Gao et al., 2021]). […] We also tested the binding abilities of methyl pyruvate analogues to Tlp11-LBD using MST (Supplementary Table S3).

The next experiment addresses Tlp11-LBD T320A. Put plainly: MST of Tlp11-LBD mutant T320A. The format is binding, C. jejuni ATCC 33560. To be noted: max ligand 2.5 mM. The procedure:
as §1
In order to confirm the contribution of L264, N268, I276, Y291, V318, and T320 to the binding to methyl pyruvate, we generated Tlp11-LBD proteins with an alanine point mutation at individual residues, to obtain the mutant proteins L264A, N268A, I276A, Y291A, V318A, and T320A, and then analyzed the binding affinities of methyl pyruvate to these mutants using MST. […]

Experiment [1] concerns the target Tlp11-LBD homologue (WP_115552006.1, residues 31-329) (Helicobacter ganmani, UniProt A0A3D8IAJ9). Kind of experiment: MST of Tlp11-LBD homologue. The following applies: H. ganmani LBD. Format: binding. The procedure:
as §1
(§2) To evaluate whether these potential Tlp11-LBD homologues could bind to methyl pyruvate, we conducted a structural analysis of the LBDs of six chemoreceptors from C. coli, H. equorum, H. himalayensis, H. mesocricetorum, H. ganmani, and C. upsaliensis using Alphafold 2. […]

The target in experiment [2] is Tlp11-LBD homologue (WP_115570384.1, residues 34-332) (Helicobacter equorum, UniProt A0A3D8ITS8). Put plainly: MST of Tlp11-LBD homologue. Format: binding. The procedure: as §1, §2
For experiment [3], the target named is Tlp11-LBD homologue (WP_199770133.1, residues 31-330). Kind of experiment: MST of Tlp11-LBD homologue. The format is binding, Helicobacter mesocricetorum. To be noted: H. mesocricetorum LBD. The procedure: as §1, §2
In experiment [4] the test system is C. jejuni 11168ΩTlp11/ΔCheY. Format: cell-based, Campylobacter jejuni. The following applies: 11168ΩTlp11/ΔCheY; microfluidic device.
The next experiment has as its system C. jejuni ATCC 33560. Put plainly: Growth curves in Minimal Essential Medium. Format: cell-based, Campylobacter jejuni. To be noted: Minimal Essential Medium with fetal bovine serum, shaking; methyl pyruvate at concentrations above 1 mM. The procedure: The C. jejuni ATCC 33560, C. jejuni WT NCTC 11168 and 11168ΩTlp11 cells were grown on a MH agar plate overnight, at 37°C, under microaerobic conditions. The colonies were suspended in PBS ([Duan et al., 2023]), pH 7.2, inoculated into Minimal Essential Medium broth (Life Technologies) containing 10% fetal bovine serum to an initial OD600 of 0.01, and grown at 37°C, 100 rpm, under microaerobic conditions. When required, Minimal Essential Medium was supplemented with different concentrations of methyl pyruvate or pyruvate (both from Macklin, China).

The subject of experiment [5] is pin-head Tar (Tar without LBD) or WT Tar. Kind of experiment: Microfluidic chemotaxis of E. coli expressing pin-head Tar or WT Tar. Format: cell-based, E. coli VS188. The following applies: microfluidic device, 50 min.
Experiment [6] deals with Tlp11[1-343]-PhoQ[202-486] (Tlp343PhoQ202). Kind of experiment: Hybrid kinase Tlp11-PhoQ GFP reporter assay. Format: cell-based, E. coli MG1655/ΔPhoQ. The following applies: stimulation for 40 min. The procedure:
(§3) The reporter plasmid pUA66-PmgtLA-GFP and the plasmid encoding the hybrid kinase were together transformed into E. coli MG1655/ΔPhoQ strain. E. coli cells containing the reporter and Tlp11-PhoQ chimera were incubated in Medium A, at 37°C, with shaking (200 rpm), until an OD600 of 0.4 was attained, following which different concentrations of methyl pyruvate were added to the medium and the cells were incubated for 40 min. The fluorescence intensity of the cells was monitored using a plate reader (Varioskan™ LUX, Life Technologies) equipped with a 488 nm laser and a 528/12 bandpass filter. The acquired data were analyzed using Prism 8.0.2.
(§4) To construct the signal input module, we fused the Tlp11-LBD with the PhoQ cytoplasmic region, to design the Tlp11-PhoQ hybrid kinases (Supplementary Figure S6), Tlp11[1-337]-PhoQ[200-486] (Tlp337PhoQ200), Tlp11[1-339]-PhoQ[200-486] (Tlp339PhoQ200), Tlp11[1-339]-PhoQ[201-486] (Tlp339PhoQ201), Tlp11[1-340]-PhoQ[202-486] (Tlp340PhoQ202), Tlp11[1-340]-PhoQ[200-486] (Tlp340PhoQ200), Tlp11[1-341]-PhoQ[202-486] (Tlp341PhoQ202), Tlp11[1-342]-PhoQ[[…]] (Tlp342PhoQ202), Tlp11[1-343]-PhoQ[202-486] (Tlp343PhoQ202), which connected Tlp11 and PhoQ in TM2 (Supplementary Figure S7C). The activity of each chimera in sensing methyl pyruvate was determined by measuring the fluorescence intensity of GFP in the E. coli MG1655/ΔPhoQ strain.

In experiment [7] the test system is full-length PhoQ or an empty vector. Put plainly: GFP reporter assay, control cells. Format: cell-based, E. coli MG1655/ΔPhoQ. To be noted: 40 min. The procedure:
as §3, §4

Molecules are shown by their SMILES. Like-named read-outs stand apart in the source and are kept apart here.

Sequence of Tlp11-LBD homologue (WP_115552006.1, residues 31-329) (A0A3D8IAJ9 entry or part of it): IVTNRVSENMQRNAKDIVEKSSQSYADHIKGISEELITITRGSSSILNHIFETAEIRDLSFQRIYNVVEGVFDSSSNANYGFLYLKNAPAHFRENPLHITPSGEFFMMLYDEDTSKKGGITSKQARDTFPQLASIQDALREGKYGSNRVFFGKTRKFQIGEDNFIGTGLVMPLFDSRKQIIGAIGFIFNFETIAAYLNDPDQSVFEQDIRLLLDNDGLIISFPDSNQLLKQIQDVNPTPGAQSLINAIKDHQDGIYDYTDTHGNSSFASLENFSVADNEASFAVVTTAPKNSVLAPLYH
Sequence of Tlp11-LBD homologue (WP_115570384.1, residues 34-332) (A0A3D8ITS8 entry or part of it): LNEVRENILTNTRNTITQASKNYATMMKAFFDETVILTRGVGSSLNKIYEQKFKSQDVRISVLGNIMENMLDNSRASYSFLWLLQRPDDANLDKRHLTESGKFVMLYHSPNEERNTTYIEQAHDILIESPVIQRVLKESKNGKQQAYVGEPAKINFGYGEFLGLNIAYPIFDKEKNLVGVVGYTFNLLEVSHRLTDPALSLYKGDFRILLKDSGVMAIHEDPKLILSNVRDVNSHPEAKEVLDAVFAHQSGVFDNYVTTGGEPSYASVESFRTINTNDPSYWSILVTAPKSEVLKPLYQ

As for `COC(=O)C(C)=O` [methyl pyruvate, Methyl pyruvate], the dissociation constant (Kd) at Tlp11-LBD (250 nM protein, methyl pyruvate at pH 7.0, read-out: Kd of Tlp11-LBD binding) turned out to be 688 ± 140 µM; on Tlp11-LBD (Tlp11-LBD saturated with 5 mM quinoline, read-out: Kd of Tlp11-LBD interacting with methyl pyruvate), 3900 ± 1100 µM; on Tlp11-LBD (Tlp11-LBD saturated with 5 mM toluene, read-out: Kd of Tlp11-LBD interacting with methyl pyruvate), 18000 ± 3000 µM; in [1] it was 1600 ± 200 µM; in [2], 340 ± 43 µM; in experiment [3], 1200 ± 400 µM. Further, the “Kd (binding curve fit)” value on Tlp11-LBD T320A is “unable to obtain fitted Kd values”. Moreover, in experiment [4], the chemotactic response entry is on record as “no chemotaxis”. In addition, the “effect on growth of C. jejuni ATCC 33560” value with C. jejuni ATCC 33560 is reported as “significantly promoted the growth”. In experiment [5], the “chemotactic response of E. coli expressing pin-head Tar or WT Tar as the sole chemoreceptor” value is recorded as “no response or a much weaker response”. Moreover, the “response (GFP fluorescence intensity) of Tlp343PhoQ202” value in experiment [6] is reported as “significant concentration-dependence”. For the same compound, the “response (GFP fluorescence intensity) of control cells” value in experiment [7] is on record as “almost no response”.

A word on the Kd: it is a measure of binding affinity in units of concentration.
